Assay results from patent publication US20200129513A1, “COMPOSITIONS AND METHODS FOR TREATING HEMATOLOGIC MALIGNANCIES” (UNIVERSITY OF ROCHESTER, priority 2018, published 2020).
Read-outs that look alike come from different tables or passages of the source.

Key:
[1] = tested on: primary AML suspension cells; experiment: AML cell viability, Cell Titer-Glo 2.0 Assay; type: cell-based, human; conditions: two different AML patient samples, 30 hours culture, Cell Titer-Glo 2.0, FIG. 6, read-out: IC50, reduction of AML cell viability
Procedure: To test this, primary AML suspension cells were treated in vitro with afatinib. Cell viability was measured by Cell Titer-Glo 2.0 Assay (Promega) in triplicate for each concentration. Two different AML patient cells (1×10^5 cells/100 μL media) were cultured for 30 hours in clear 96-well flat bottom tissue culture plates (Costar, Corning) with serial drug dilutions (100 μM afatinib (LC Laboratories) serially diluted 3-fold ending at ˜0.01 μM). Media is RPMI1640 (Cellgro, Corning) supplemented with penicillin, streptomycin, L-glutamine (Gibco, ThermoFisher Scientific), and 10% heat-inactivated fetal bovine serum (Sigma-Aldrich). After cell culture, viability was assayed according to manufacturer's directions. Luminescence was measured on a BioTek Synergy2 96-well plate reader (BioTek Instruments). Data was analysed using Prism6 software (GraphPad Software) and dose curve was generated using 4PL fit.

[2] = tested on: CLL patient cells; experiment: CLL cell viability, Cell Titer-Glo 2.0 Assay; type: cell-based, human; conditions: for IC50: Homo sapiens, CLL patient cells, 48 hours culture
Procedure: (§1) After cell culture, viability was assayed according to manufacturer's directions. Luminescence was measured on a BioTek Synergy2 96-well plate reader (BioTek Instruments). Data was analysed using Prism6 software (GraphPad Software) and dose curve was generated using 4PL fit.
as §1, with “Cell viability was measured by Cell Titer-Glo 2.0 Assay (Promega) in triplicate for each concentration. […] After” for “After”

[3] = tested on: CA46 cell line; experiment: NHL p53 mutated cell line viability, Cell Titer-Glo 2.0 Assay; type: cell-based; conditions: Homo sapiens; CA46 (BL-derived, p.R248Q p53), 54 hours culture, Cell Titer-Glo 2.0, FIG. 9; read-out: IC50, reduction of cell viability of p53 mutated NHL cell line
Procedure: Luminescence was measured on a BioTek Synergy2 96-well plate reader (BioTek Instruments). Data was analysed using Prism6 software (GraphPad Software) and dose curve was generated using 4PL fit.

[4] = tested on: AML patient cells; experiment: AML cell death, CellTox Green Cytotoxicity Assay; type: cell-based; conditions: Homo sapiens, one AML patient sample, 30 hours culture, FIG. 7, read-out: IC50, induction of AML cell death
[5] = tested on: CLL patient cells; experiment: CLL cell viability, Cell Titer-Blue Cell Viability Assay; type: cell-based; conditions: Homo sapiens, 48 hours culture, FIG. 1, read-out: IC50, reduction of CLL cell viability
From the text: The common off-target with the best binding was ERRB2 in the EGFR family of receptors. Afatinib (an irreversible inhibitor that covalently binds to the EGFR family of receptors (including ERBB2) active tyrosine kinase domain ATP-binding site, a similar mechanism to that of the BTK inhibitors) was chosen as an example EGFR family inhibitor to test this hypothesis. […] Media is RPMI1640 (Cellgro, Corning) supplemented with penicillin, streptomycin, L-glutamine (Gibco, ThermoFisher Scientific, Waltham, Mass.), and 10% heat-inactivated fetal bovine serum (Sigma-Aldrich, St. Louis, Mo.). After cell culture, viability was measured by Cell Titer-Blue Cell Viability Assay (Promega, Madison, Wis.) according to manufacturer's directions. Non-viable cells produce less fluorescence. Measurements were done in triplicate for each concentration. Fluorescence was measured on a BioTek Synergy2 96-well plate reader (BioTek Instruments, Winooski, Vt.). Data was analysed using Prism6 software (GraphPad Software, La Jolla, Calif.) and dose curve was generated using 4PL fit. Afatinib reduces CLL cell viability in a dose dependent manner (IC50 0.4 μM) as shown in FIG. 1 (all data points shown).

[6] = tested on: CLL patient cells; experiment: CLL cell death, CellTox Green Cytotoxicity Assay; type: cell-based; conditions: Homo sapiens, 48 hours culture, FIG. 3, read-out: IC50, induction of CLL cell death
From the text: The common off-target with the best binding was ERRB2 in the EGFR family of receptors. Afatinib (an irreversible inhibitor that covalently binds to the EGFR family of receptors (including ERBB2) active tyrosine kinase domain ATP-binding site, a similar mechanism to that of the BTK inhibitors) was chosen as an example EGFR family inhibitor to test this hypothesis. […] Media is RPMI1640 (Cellgro, Corning) supplemented with penicillin, streptomycin, L-glutamine (Gibco, ThermoFisher Scientific, Waltham, Mass.), and 10% heat-inactivated fetal bovine serum (Sigma-Aldrich, St. Louis, Mo.). After cell culture, viability was measured by Cell Titer-Blue Cell Viability Assay (Promega, Madison, Wis.) according to manufacturer's directions. Non-viable cells produce less fluorescence. Measurements were done in triplicate for each concentration. Fluorescence was measured on a BioTek Synergy2 96-well plate reader (BioTek Instruments, Winooski, Vt.). Data was analysed using Prism6 software (GraphPad Software, La Jolla, Calif.) and dose curve was generated using 4PL fit. […] To test that an EGFR family inhibitor not only reduces CLL cell viability, but also induces cell death in vitro, cytotoxicity was measured by CellTox Green Cytotoxicity Assay (Promega). Dead cells produce more fluorescence in this assay. […] Fluorescence was measured on a BioTek Synergy2 96-well plate reader (BioTek Instruments). […]

[7] = tested on: CA46 cell line; experiment: NHL p53 mutated cell line death, CellTox Green Cytotoxicity Assay; type: cell-based; conditions: Homo sapiens, CA46, 54 hours culture, FIG. 10, read-out: IC50, induction of cell death of p53 mutated NHL cell line

## CN(C)C/C=C/C(=O)Nc1cc2c(Nc3ccc(F)c(Cl)c3)ncnc2cc1O[C@H]1CCOC1 [Afatinib]
[1]; Homo sapiens, 30 h
  IC50: 2.1 µM
[1]
  IC50: 2.6 µM
[2]; read-out: IC50, reduction of CLL cell viability (afatinib vs ibrutinib comparison), Cell Titer-Glo 2.0, FIG. 4
  IC50: 0.5 µM
[2]; Cell Titer-Glo 2.0, FIG. 2, read-out: IC50, reduction of CLL cell viability
  IC50: 0.3 µM
[2]; ratio of IC50 values, FIG. 4
  fold lower concentration than ibrutinib for reduction of CLL cell viability: 20 fold
[3]
  IC50: 3 µM
[4]
  IC50: 19 µM
[5]
  IC50: 0.4 µM
[6]
  IC50: 12 µM
[7]
  IC50: 22 µM
